According to patent US20050250821A1, “Quaternary ammonium compounds in the treatment of water and as antimicrobial wash” (priority 2004, published 2005):
In brackets after ≈: the same amount, converted by molar mass.

Assays:
[1] = system: Salmonella Enteritidis (ATCC 13076); assay: microbe, parasite or virus in culture; settings: Salmonella enterica, ATCC13076|ENTERITIDIS, 24 h, read-out: Minimum Inhibitory Concentration (MIC)
Description: A Petroff Hausser counting chamber was used to determine the level of inoculum.
An Optimax microtiter plate reader (Molecular Devices, Sunnyvale, Calif.) at 405 nm wavelength was used to measure the optical density of the suspension in each well. Plates were read kinetically over 24 h. The temperature was maintained at 35° C. All results reflect the average optical density measurements of four microtiter wells. […] A 100 μl aliquot of test organism and a 100 μl aliquot of experimental treatment were dispensed into individual microtiter plate wells.

[2] = system: Staphylococcus aureus (ATCC 25923); assay: Microtiter plate assay, CPC and propionic acid, 4×4 matrix (Experiment 2); assay type: cell-based; settings: S. aureus
Description: (§1) The 4×4 matrix was either used in its entirety or in an abbreviated format as deemed appropriate by previous research conducted with similar organisms using a mixed organic acid blend.
(§2) Fifteen formulations were prepared using the incomplete 4×4 matrix design in Table 3.
(§3) Four test organisms—Salmonella Enteritidis (ATCC 13076), Staphylococcus aureus (ATCC 25923) E. coli O157:H7 (ATCC 35150) and Listeria monocytogenes (ATCC 15313)—were selected for use in these screening assays. […] Propionic acid was obtained from Kemin Americas, Inc (Des Moines, Iowa). S. Enteriditis, S. aureus and E. coli were grown aerobically in either Tryptic Soy Broth (TSB) or Nutrient Broth (NB) for 24 h at 37° C. L. monocytogenes was grown aerobically in Brain Heart Infusion Broth (BHI) for 24 h at 37° C. Test inocula were prepared to achieve a 10^6 cfu/ml suspension of bacterial cells. A Petroff Hausser counting chamber was used to determine the level of inoculum.
An Optimax microtiter plate reader (Molecular Devices, Sunnyvale, Calif.) at 405 nm wavelength was used to measure the optical density of the suspension in each well. Plates were read kinetically over 24 h. The temperature was maintained at 35° C. All results reflect the average optical density measurements of four microtiter wells. Treatments were prepared in sterile RO at the inclusion levels noted in Tables 1-2. […]

[3] = system: Listeria monocytogenes (ATCC 15313); assay: Microtiter plate assay, CPC and propionic acid, abbreviated 4×4 matrix (Experiment 2); assay type: cell-based; settings: L. monocytogenes
Description: as §1, §2, §3
(§4) An Optimax microtiter plate reader (Molecular Devices, Sunnyvale, Calif.) at 405 nm wavelength was used to measure the optical density of the suspension in each well. Plates were read kinetically over 24 h. The temperature was maintained at 35° C. All results reflect the average optical density measurements of four microtiter wells. Treatments were prepared in sterile RO at the inclusion levels noted in Tables 1-2. A 100 μl aliquot of test organism and a 100 μl aliquot of experimental treatment were dispensed into individual microtiter plate wells. […] Positive controls consisting of 100 μl of test organism in NB or BHI and 100 μl of sterile water and a negative control consisting of 100 μl of NB (no organisms) and 100 μl of sterile water were also used.

[4] = system: E. coli O157:H7 (ATCC 35150); assay: as above; assay type: cell-based
Description: as §1, §2, §3, §4

[5] = system: Salmonella Enteritidis (ATCC 13076); assay: Microtiter plate assay, CPC and mixed organic acids (Experiment 3); assay type: cell-based
Description: (§5) Fifteen formulations were prepared using the incomplete 4×4 matrix design in Table 8.
(§6) Two test organisms—Salmonella Enteritidis (ATCC 13076) and E. coli O157:H7 (ATCC 35150)—were screened. Salmonella Enteritidis was grown aerobically in Nutrient Broth (NB) for 24 h at 37° C. E. coli was grown in NB for 6 h at 37° C. Test inocula were prepared to achieve a 10^6 cfu/ml suspension of bacterial cells. A Petroff Hausser counting chamber was used to determine the level of inoculum.
(§7) An Optimax microtiter plate reader (Molecular Devices, Sunnyvale, Calif.) at 405 nm wavelength was used to measure the optical density of the suspension in each well. Plates were read kinetically over 24 h. The temperature was maintained at 35° C. All results reflect the average optical density measurements of four microtiter wells. Treatments were prepared in sterile RO at the inclusion levels noted in Table 1. A 100 μl aliquot of test organism and a 100 μl aliquot of experimental treatment were dispensed into individual microtiter plate wells. Bacteria cultures were diluted in Nutrient Broth (NB) prior to inoculation into the wells. Positive controls consisting of 100 μl of test organism in NB and 100 μl of sterile water and a negative control consisting of 100 μl of NB (no organisms) and 100 μl of sterile water were also used.

[6] = system: E. coli O157:H7 (ATCC 35150); assay: as above; assay type: cell-based
Description: as §5, §6, §7

[7] = system: Salmonella Enteritidis (ATCC 13076); assay: Microtiter plate assay, CPC and acetic acid (Experiment 4); assay type: cell-based; settings: S. Enteritidis, acetic acid treatment alone
Description: Test inocula were prepared to achieve a 10^6 cfu/ml suspension of bacterial cells. A Petroff Hausser counting chamber was used to determine the level of inoculum.
as §4, with “Table 1.” for “Tables 1-2.”, “NB” for “NB or BHI”

[8] = system: Salmonella Enteritidis (ATCC 13076); assay: Microtiter plate assay, CPC and propionic acid, 3×3 matrix (Experiment 2); assay type: cell-based; settings: propionic acid alone, previous experimentation
Description: as §1
Eight formulations were prepared using the incomplete 3×3 matrix design in Table 2. […] Positive and negative controls were included as described in Experiment 1.
Propionic acid was obtained from Kemin Americas, Inc (Des Moines, Iowa). S. Enteriditis, S. aureus and E. coli were grown aerobically in either Tryptic Soy Broth (TSB) or Nutrient Broth (NB) for 24 h at 37° C. L. monocytogenes was grown aerobically in Brain Heart Infusion Broth (BHI) for 24 h at 37° C.
Plates were read kinetically over 24 h. The temperature was maintained at 35° C. […] Treatments were prepared in sterile RO at the inclusion levels noted in Tables 1-2.

For `C=O` [37% formaldehyde, formaldehyde], the MIC [1] was ~50 µg/mL (≈ 1670 µM).

`CCCCCCCCCCCCCCCC[n+]1ccccc1` [CPC, Cetylpyridinium chloride] was tested, and the “propionic acid substituted by 1 ppm CPC” value [2] was “approximately 200 ppm”, the “propionic acid substituted by 1 ppm CPC” value [3] was > 200 ppm and the “propionic acid substituted by 1 ppm CPC” value ([4]; E. coli O157:H7) was 50 ppm. The “mixed acids substituted by 1 ppm CPC” value [5] was 50 ppm and the “mixed organic acids substituted by 1 ppm CPC” value [6] was 50 ppm.

`CC(=O)O` [acetic acid] was tested, and the “concentration that completely inhibited growth” value [7] was 250 ppm.

In the case of `CCC(=O)O` [propionic acid], the “concentration shown to inhibit growth” value ([2]; propionic acid alone, previous experimentation) is reported as 250 ppm, the “concentration sufficient to inhibit growth” value [8] is reported as 250 ppm and the “concentration that completely inhibited growth” value ([4]; E. coli, propionic acid treatment alone) is reported as 250 ppm.
